Reference: BindingDB's records for PubMed 1356154 (Dupont Pharmaceuticals, 1992)
pKi: −log10 of the molar value. Values joined by “and” are separate entries in the source; they are usually repeats but may differ in a detail not shown here. Equal entries are not always repeated.

Each compound was assayed against D(2) dopamine receptor (Rattus norvegicus, UniProt P61169).
Chain of D(2) dopamine receptor (P61169 whole entry): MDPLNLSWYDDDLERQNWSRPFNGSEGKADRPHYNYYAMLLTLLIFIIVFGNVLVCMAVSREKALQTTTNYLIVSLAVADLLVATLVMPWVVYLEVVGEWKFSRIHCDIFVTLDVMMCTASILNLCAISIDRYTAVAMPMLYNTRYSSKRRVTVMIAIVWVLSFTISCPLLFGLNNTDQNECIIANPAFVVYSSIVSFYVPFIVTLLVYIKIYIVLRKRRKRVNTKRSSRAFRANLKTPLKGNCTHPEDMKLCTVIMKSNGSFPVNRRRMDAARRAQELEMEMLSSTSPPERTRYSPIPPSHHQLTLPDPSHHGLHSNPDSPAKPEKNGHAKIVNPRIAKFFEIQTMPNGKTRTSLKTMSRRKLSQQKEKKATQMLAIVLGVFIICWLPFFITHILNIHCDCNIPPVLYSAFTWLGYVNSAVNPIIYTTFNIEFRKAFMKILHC
In the case of `NC1CCc2cc(O)c(O)cc2C1` (centres undefined), the pKi was 8.21 and 7.62.
In the case of `CC(C)C[C@H]1C(=O)N2CCC[C@H]2[C@]2(O)O[C@](NC(=O)[C@@H]3C=C4c5cccc6[nH]c(Br)c(c56)C[C@H]4N(C)C3)(C(C)C)C(=O)N12` [Bromocriptine+ (GTP+)], the pKi was 7.08 and 7.27.
For `CN(C)CCCSc1ccccc1NC(=O)/C=C/c1ccccc1` [CINANSERIN], the pKi was under 5.00.
In the case of `O=C(O)c1ccccc1C(=O)Nc1cccc2ccccc12` [NPA,(+)], the pKi was 8.32.
